Target: T1, recombinant human full-length HSD17B13 protein (Homo sapiens, UniProt Q7Z5P4)
T1 construct: recombinant human full-length HSD17B13 protein; 6xHis (C); made in house; host or cells: HEK293E-253/FH
T1 sequence (Q7Z5P4 20-300): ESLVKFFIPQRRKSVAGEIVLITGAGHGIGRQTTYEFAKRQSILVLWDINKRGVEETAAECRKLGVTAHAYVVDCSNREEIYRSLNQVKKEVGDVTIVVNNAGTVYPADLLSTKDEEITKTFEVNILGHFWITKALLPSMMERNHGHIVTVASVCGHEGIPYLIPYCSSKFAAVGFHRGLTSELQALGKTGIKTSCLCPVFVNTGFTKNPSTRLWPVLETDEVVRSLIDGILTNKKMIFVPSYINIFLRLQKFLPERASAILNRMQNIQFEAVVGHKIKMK
Assay: HSD17B13 96 luminescence inhibition assay (NAD(P)H-Glo)
Format: biochemical
Experimental: Compounds of the present disclosure were tested for inhibition of HSD17B13 using the following protocol. Briefly, recombinant human full-length HSD17B13 protein with a 6X-C-terminal His tag was expressed in cell line HEK293E-253/FH and purified using Ni^2+-affinity purification. Enzymatic activity was determined through the production of NADH using the NAD(P)H-Glo Detection System (Promega). The inhibitory activity of test compounds was determined in reactions performed at 30° C. in assay buffer consisting of 25 mM EPPS (8.0), 125 mM NaCl, 0.03% Triton X-100, 0.03% BSA, with […] steroid substrate (1,3,5(10), 7-estratetraen-3, 17b-diol (Steraloids E0580)) added from a 2.5 mM DMSO stock and 500 mM NAD. The final percentage of DMSO was 4.5%. After a one-hour incubation, a 20% volume of luciferase Glo-reagent was added and light units captured on a Victor V Plate Reader (Perkin Elmer).
Concentration-response curves for inhibitors were normalized to control samples containing enzyme only (negative control) and sample without enzyme (positive control). 50% inhibition (IC50) values were determined using a nonlinear least squares fit of the data to a four-parameter equation using Prism 6.0 (GraphPad Software, San Diego).

Row | IC50 | Compound
1 | > 5 µM | CS(=O)(=O)N1CCC(CN2C(=O)S/C(=C\c3c(F)cc(F)c(O)c3F)C2=O)C1 (centres unmarked) [Compound 1, (Z)-3-((1-(methylsulfonyl)pyrrolidin-3-yl)methyl)-5-(2,4,6-trifluoro-3-hydroxybenzylidene)thiazolidine-2,4-dione]
2 | 1 to 5 µM | O=C1S/C(=C\c2c(F)cc(F)c(O)c2F)C(=O)N1Cc1cccc(O)c1 [Compound 4, (Z)-3-(3-hydroxybenzyl)-5-(2,4,6-trifluoro-3-hydroxybenzylidene)thiazolidine-2,4-dione]
3 | 1 to 5 µM | O=C1S/C(=C\c2ccc(F)c(O)c2)C(=O)N1Cc1cccc(O)c1 [Compound 11, (Z)-5-(4-fluoro-3-hydroxybenzylidene)-3-(3-hydroxybenzyl)thiazolidine-2,4-dione]
4 | 1 to 5 µM | CS(=O)(=O)c1cccc(CN2C(=O)S/C(=C\c3ccc(F)c(O)c3)C2=O)c1 [Compound 12, (Z)-5-(4-fluoro-3-hydroxybenzylidene)-3-(3-(methylsulfonyl)benzyl)thiazolidine-2,4-dione]
5 | 1 to 5 µM | O=C1O/C(=C\c2ccc(F)c(O)c2)C(=O)N1CC1CCOCC1 [Compound 13, (Z)-5-(4-fluoro-3-hydroxybenzylidene)-3-((tetrahydro-2H-pyran-4-yl)methyl) oxazolidine-2,4-dione]
6 | 1 to 5 µM | O=C1S/C(=C\c2ccc(F)c(O)c2)C(=O)N1Cc1cccc(-c2c[nH]nn2)c1 [Compound 15, (Z)-3-(3-(1H-1,2,3-triazol-4-yl)benzyl)-5-(4-fluoro-3-hydroxybenzylidene) thiazolidine-2,4-dione]
7 | 1 to 5 µM | NC(=O)c1cccc(CN2C(=O)S/C(=C\c3ccc(F)c(O)c3)C2=O)c1 [Compound 18, (Z)-3-((5-(4-fluoro-3-hydroxybenzylidene)-2,4-dioxothiazolidin-3-yl)methyl) benzamide]
8 | 1 to 5 µM | N#Cc1cccc(CN2C(=O)S/C(=C\c3ccc(F)c(O)c3)C2=O)c1 [Compound 19, (Z)-3-((5-(4-fluoro-3-hydroxybenzylidene)-2,4-dioxothiazolidin-3-yl)methyl) benzonitrile]
9 | ≤ 1 µM | COc1cc(CN2C(=O)S/C(=C\c3c(F)cc(F)c(O)c3F)C2=O)ccn1 [Compound 22, (Z)-3-((2-methoxypyridin-4-yl)methyl)-5-(2,4,6-trifluoro-3-hydroxybenzylidene) thiazolidine-2,4-dione]
10 | 1 to 5 µM | O=C(NCc1cccc(O)c1)c1ccc2cc(F)c(O)cc2n1 [Compound 24, 6-fluoro-7-hydroxy-N-(3-hydroxybenzyl)quinoline-2-carboxamide]
11 | > 5 µM | O=C(NCc1cccc(O)c1)c1cc2cc(O)c(F)cc2cn1 [Compound 26, 7-fluoro-6-hydroxy-N-(3-hydroxybenzyl)isoquinoline-3-carboxamide]
12 | 1 to 5 µM | O=C(c1cc(O)c(F)c(F)c1)c1ccc(-c2ccc(F)c(O)c2F)s1 [Compound 30, (5-(2,4-difluoro-3-hydroxyphenyl)thiophen-2-yl)(3,4-difluoro-5-hydroxyphenyl) methanone]
13 | 1 to 5 µM | O=C(c1ccc(-c2ccc(F)c(O)c2F)s1)c1ccc(F)c(O)c1F [Compound 32, (2,4-difluoro-3-hydroxyphenyl)(5-(2,4-difluoro-3-hydroxyphenyl)thiophen-2-yl)methanone]
14 | ≤ 1 µM | NS(=O)(=O)c1cccc(CN2C(=O)S/C(=C\c3ccc(F)c(O)c3)C2=O)c1 [Compound 33, (Z)-3-((5-(4-fluoro-3-hydroxybenzylidene)-2,4-dioxothiazolidin-3-yl)methyl) benzenesulfonamide]
15 | 1 to 5 µM | O=C1S/C(=C\c2c(F)cc(F)c(O)c2F)C(=O)N1Cc1cc[nH]c(=O)c1 [Compound 36, (Z)-3-((2-oxo-1,2-dihydropyridin-4-yl)methyl)-5-(2,4,6-trifluoro-3-hydroxybenzylidene)thiazolidine-2,4-dione]

The remaining lines, values behind:

Row | Compound | IC50
16 | O=C1S/C(=C\c2ccc(F)c(O)c2)C(=O)N1Cc1ccc(F)c(F)c1 [Compound 2, (Z)-3-(3,4-difluorobenzyl)-5-(4-fluoro-3-hydroxybenzylidene)thiazolidine-2,4-dione] | 1 to 5 µM
17 | O=C1S/C(=C\c2cc(F)c(F)c(O)c2F)C(=O)N1Cc1cccc(O)c1 [Compound 3, (Z)-3(3-hydroxybenzyl)-5-(2,4,5-trifluoro-3-hydroxybenzylidene)thiazolidine-2,4-dione] | 1 to 5 µM
18 | O=C1S/C(=C\c2ccc(F)c(O)c2F)C(=O)N1Cc1cccc(O)c1 [Compound 6, (Z)-5(2,4-difluoro-3-hydroxybenzylidene)-3-(3-hydroxybenzyl)thiazolidine-2,4-dione] | 1 to 5 µM
19 | O=C1S/C(=C\c2cc(O)c(F)c(F)c2)C(=O)N1Cc1cccc(O)c1 [Compound 7, (5Z)-5-[(3,4-difluoro-5-hydroxyphenyl)methylidene]-3-[(3-hydroxyphenyl)methyl]-1,3-thiazolidine-2,4-dione] | 1 to 5 µM
20 | O=C1S/C(=C\c2ccc(F)c(O)c2)C(=O)N1Cc1cc(O)ccc1F [Compound 8, (Z)-5-(4-fluoro-3-hydroxybenzylidene)-3-(2-fluoro-5-hydroxybenzyl)thiazolidine-2,4-dione] | 1 to 5 µM
21 | O=C1S/C(=C\c2ccc(F)c(O)c2)C(=O)N1Cc1cc(O)cc(F)c1 [Compound 9, (Z)-5-(4-fluoro-3-hydroxybenzylidene)-3-(3-fluoro-5-hydroxybenzyl)thiazolidine-2,4-dione] | 1 to 5 µM
22 | O=C1O/C(=C\c2ccc(F)c(O)c2)C(=O)N1Cc1cccc(O)c1 [Compound 10, (Z)-5-(4-fluoro-3-hydroxybenzylidene)-3-(3-hydroxybenzyl)oxazolidine-2,4-dione] | > 5 µM
23 | O=C1S/C(=C\c2ccc(F)c(O)c2)C(=O)N1CC1CCOCC1 [Compound 14, (Z)-5-(4-fluoro-3-hydroxybenzylidene)-3-((tetrahydro-2H-pyran-4-yl)methyl)thiazolidine-2,4-dione] | > 5 µM
24 | O=C1S/C(=C\c2ccc(F)c(O)c2)C(=O)N1Cc1cccc(OC(F)(F)F)c1 [Compound 16, (Z)-5-(4-fluoro-3-hydroxybenzylidene)-3-(3-(trifluoromethoxy)benzyl) thiazolidine-2,4-dione] | > 5 µM
25 | O=C1S/C(=C\c2ccc(F)c(O)c2)C(=O)N1Cc1cccc(C(F)(F)F)c1 [Compound 17, (Z)-5-(4-fluoro-3-hydroxybenzylidene)-3-(3-(trifluoromethyl)benzyl)thiazolidine-2,4-dione] | 1 to 5 µM
26 | CS(=O)(=O)Nc1cccc(CN2C(=O)S/C(=C\c3ccc(F)c(O)c3)C2=O)c1 [Compound 20, N-(3-{[(5Z)-5-[(4-fluoro-3-hydroxyphenyl)methylidene]-2,4-dioxo-1,3-thiazolidin-3-yl]methyl}phenyl)methanesulfonamide] | > 5 µM
27 | COc1ccc(CN2C(=O)S/C(=C\c3c(F)cc(F)c(O)c3F)C2=O)cn1 [Compound 23, (Z)-3-((6-methoxypyridin-3-yl)methyl)-5-(2,4,6-trifluoro-3-hydroxybenzylidene)thiazolidine-2,4-dione] | 1 to 5 µM
28 | O=C(NCc1cccc(-c2nnn[nH]2)c1)c1ccc2cc(F)c(O)cc2n1 [Compound 25, N-(3-(1H-tetrazol-5-yl)benzyl)-6-fluoro-7-hydroxyquinoline-2-carboxamide] | > 5 µM
29 | N#Cc1cccc(CNC(=O)c2ccc3cc(F)c(O)cc3n2)c1 [Compound 27, N-(3-cyanobenzyl)-6-fluoro-7-hydroxyquinoline-2-carboxamide] | > 5 µM
30 | O=C(c1ccc(F)c(O)c1)c1ccc(-c2ccc(F)c(O)c2F)s1 [Compound 28, (5-(2,4-difluoro-3-hydroxyphenyl)thiophen-2-yl)(4-fluoro-3-hydroxyphenyl) methanone] | 1 to 5 µM
31 | O=C(c1ccc(-c2ccc(F)c(O)c2F)s1)c1c(F)cc(F)c(O)c1F [Compound 29, (5-(2,4-difluoro-3-hydroxyphenyl)thiophen-2-yl)(2,4,6-trifluoro-3-hydroxyphenyl)methanone] | 1 to 5 µM
32 | O=C(c1ccc(-c2ccc(F)c(O)c2F)s1)c1cc(F)c(F)c(O)c1F [Compound 31, (5-(2,4-difluoro-3-hydroxyphenyl)thiophen-2-yl)(2,4,5-trifluoro-3-hydroxyphenyl) methanone] | 1 to 5 µM
33 | NS(=O)(=O)c1cccc(CN2C(=O)S/C(=C\c3c(F)cc(F)c(O)c3F)C2=O)c1 [Compound 34, (Z)-3-((2,4-dioxo-5-(2,4,6-trifluoro-3-hydroxybenzylidene)thiazolidin-3-yl)methyl)benzenesulfonamide] | ≤ 1 µM
34 | O=C1S/C(=C\c2c(F)cc(F)c(O)c2F)C(=O)N1Cc1ccc(=O)[nH]c1 [Compound 35, (5Z)-3-[(6-oxo-1,6-dihydropyridin-3-yl)methyl]-5-[(2,4,6-trifluoro-3-hydroxyphenyl)methylidene]-1,3-thiazolidine-2,4-dione] | ≤ 1 µM
35 | O=C1S/C(=C\c2c(F)ccc(O)c2F)C(=O)N1Cc1cccc(O)c1 [Compound 37, (Z)-5-(2,6-difluoro-3-hydroxybenzylidene)-3-(3-hydroxybenzyl)thiazolidine-2,4-dione] | > 5 µM

Source: patent US20230339871A1, “COMPOUNDS AND METHODS OF MODULATING 17B-HYDROXYSTEROID DEHYDROGENASE TYPE 13” (METREA BIOSCIENCES, INC., priority 2020, published 2023)
